Like-named read-outs stand apart in the source and are kept apart here.
Tests used:
Solubility in toluene = type: physicochemical; conditions: for Solubility in Toluene: 1 g in 5 ml toluene, ultrasonic shaking 50° C. 10 min, then room temperature 30 min, filtered; for residue (solubility measurement in toluene): residue behind the printed solubility
Procedure: In a 20 ml test tube were placed 1 g of a naphthalocyanine compound and 5 ml of toluene. After the tube was tightly stoppered, the content was subjected to ultrasonic shaking at 50° C. for 10 min. Then, the tube was allowed to stand at room temperature for 30 min. and the content was filtered. The filtrate was concentrated to dryness. The solubility of the naphthalocyanine in toluene was calculated using the following equation. [formula] R1, R2, and R3 and R4 of naphthalocyanine compounds of the present invention can bond to 6 to 7 positions of all naphthalene nuclei of naphthalocyanine. Each of these groups can be a mixed group.

[1] = Near infrared absorption spectrum in toluene (largest absorption peak, absorptivity coefficient); type: physicochemical
Text: It is to be noted that the naphthalocyanine compounds according to the present invention are not restricted to the compounds shown in Table 2.
Near infrared absorption spectrum for toluene solution: […]

Row | Substance | Solubility in Toluene (Solubility in toluene) [%] | Absorptivity coefficient (log ε) [1] | Wavelength at largest absorption peak [1] [nm] | Absorptivity coefficient (log ε) ([1]; listed as tert-amyl Cu) | residue (solubility measurement in toluene) (Solubility in toluene) [g] | Solubility in organic solvents (in words) (Solubility in toluene; organic solvents, compared with tert-butyl analogue or in general)
1 | Indium tetra-tert, sec-mixed amylnaphthalocyanine [Example 4] | 7 | 5.09 | 805 | – | – | –
2 | copper tetra-tert-amylnaphthalocyanine [Example 2] | 7 | – | 771 | 5.24 | – | –
3 | tetra-tert-amylvanadylnaphthalocyanine [Example 1] | 6 | 5.37 | 808 | – | 0.6 | –
4 | tetra-tert-heptylvanadylnaphthalocyanine [Example 5] | 11 | 5.27 | 809 | – | – | –
5 | tetra-6-tert-butylvanadylnaphthalocyanine [reference compound] | 2 | – | – | – | – | much lower solubility in organic solvents
6 | tetra-tert, sec-mixed amylvanadylnaphthalocyanine [Example 3] | 7 | 5.32 | 809 | – | 0.6 | –

From patent publication USRE34480E, “Naphthalocyanine compounds” (Yamamoto Kagaku Gosei Co., Ltd., priority 1983, dated 1993)
